Measurements from patent US11485751B2, “Apramycin derivatives” (WAYNE STATE UNIVERSITY, priority 2017, dated 2022).
Values after ≈ are worked out from the molar mass of the structure shown.

Assays:
Format in all cases: cell-based
[1] = test system: A baum. AG227 APH(3′)-I armA; experiment: Activity against G1405-methylated 16S-rRNA, clinical isolate AG227
From the text: (§1) Minimal inhibitory concentrations (MIC) have been determined by broth microdilution assays (CLSI. Methods for Dilution Antimicrobial Susceptibility Tests for Bacteria That Grow Aerobically; Approved Standard—Tenth Edition. CLSI document M07-A10. Wayne, Pa.: Clinical and Laboratory Standards Institute; 2015.).

[2] = test system: AG033 P. aer. APH(3′)-II AAC(6′)-I; experiment: Antibacterial activity, clinical isolate AG033; set-up: unit not given here
From the text: as §1
(§2) Table 4 and 5 show the antibacterial activity of the compounds of the invention against bacterial reference strains (table 4) and against representative clinical isolates (table 5).

[3] = test system: Engineered E. coli pH424 armA; experiment: Activity against G1405-methylated 16S-rRNA, E. coli pH424 armA
From the text: as §1

AG038 MRSA = experiment: Antibacterial activity, clinical isolate AG038; set-up: unit not given here
From the text: as §1, §2

[4] = test system: AG039 MRSA AAC(6′)-I ANT(4′)-I; experiment: Antibacterial activity, clinical isolate AG039
From the text: as §1, §2

[5] = test system: AG212, Escherichia coli ATCC25922; experiment: MIC reference strain AG212; conditions: reference strain ATCC25922
From the text: as §1, §2
(§3) Legend to Tables: GEN, gentamicin; AMK, amikacin; PLZ, plazomicin; APR, apramycin; AG212, Escherichia coli ATCC25922; AG215, Klebsiella pneumonia; AG220, Pseudomonas aeruginosa ATCC27853; AG225, Acinetobacter baumannii pittii; AG290, Enterobacter cloacae; […], Mycobacterium smegmatis. MICs for AG192 have been determined in the presence of 0.5 μg/mL of ampicillin in the medium to mimic the synergistic effect of aminoglycoside and β-lactam antibiotics combination therapy in the treatment of Enterococcus infections in humans.

[6] = test system: Engineered E. coli pH430 WT; experiment: Activity, engineered E. coli pH430 WT; set-up: unit not given here; conditions: wild type
From the text: as §1

[7] = test system: AG290, Enterobacter cloacae; experiment: MIC reference strain AG290; conditions: reference strain
From the text: as §1, §2, §3

[8] = test system: K. pneum. AG269 AAC(3)-II AAC(6′)-I rmtB; experiment: Activity against G1405-methylated 16S-rRNA, clinical isolate AG269
From the text: as §1

[9] = test system: Engineered E. coli pH425 rmtB; experiment: Activity against G1405-methylated 16S-rRNA, E. coli pH425 rmtB
From the text: as §1

[10] = test system: AG220, Pseudomonas aeruginosa ATCC27853; experiment: MIC reference strain AG220
From the text: as §1, §2, §3

ATCC19977 M. abcessus = experiment: MIC reference strain ATCC19977
From the text: as §1, §2

[11] = test system: E. coli AG153 AAC(3)-II APH(3′)-II rmtB; experiment: Activity against G1405-methylated 16S-rRNA, clinical isolate AG153; set-up: unit not given here
From the text: as §1

AG031 P. aer. APH(3′)-II = experiment: Antibacterial activity, clinical isolate AG031; set-up: unit not given here
From the text: as §1, §2

[12] = test system: Enterob. AG302 AAC(3)-II AAC(6′)-I rmtC; experiment: Activity against G1405-methylated 16S-rRNA, clinical isolate AG302
From the text: as §1

[13] = test system: AG225, Acinetobacter baumannii pittii; experiment: MIC reference strain AG225; conditions: reference strain
From the text: as §1, §2, §3

[14] = test system: Engineered E. coli pH427 rmtF; experiment: Activity against G1405-methylated 16S-rRNA, E. coli pH427 rmtF
From the text: as §1

[15] = test system: Engineered E. coli pH426 rmtC; experiment: Activity against G1405-methylated 16S-rRNA, E. coli pH426 rmtC
From the text: as §1

[16] = test system: AG215, Klebsiella pneumonia; experiment: MIC reference strain AG215; conditions: reference strain
From the text: as §1, §2, §3

AG032 P. aer. APH(3′)-II = experiment: Antibacterial activity, clinical isolate AG032; set-up: unit not given here
From the text: as §1, §2

[17] = test system: AG042 MRSA AAC(6′)-I ANT(4′)-I APH(2′); experiment: Antibacterial activity, clinical isolate AG042; set-up: unit not given here
From the text: as §1, §2

AG055 E. coli WT = experiment: Antibacterial activity, clinical isolate AG055; set-up: unit not given here
From the text: as §1, §2

AG003 E. coli AAC(3)-II = experiment: Antibacterial activity, clinical isolate AG003; set-up: unit not given here
From the text: as §1, §2

AG001 E. coli WT = experiment: Antibacterial activity, clinical isolate AG001; set-up: unit not given here
From the text: as §1, §2

| Compound | Activity A baum. AG227 APH(3′)-I armA [1] | Antibacterial activity AG033 P. aer. APH(3′)-II AAC(6′)-I [2] | Activity E. coli pH424 armA [3] | Antibacterial activity AG038 MRSA (AG038 MRSA) | Antibacterial activity AG039 MRSA AAC(6′)-I ANT(4′)-I [4] | Activity E. coli pH430 WT [6] | Activity K. pneum. AG269 AAC(3)-II AAC(6′)-I rmtB [8] | Activity E. coli pH425 rmtB [9] | Activity E. coli AG153 AAC(3)-II APH(3′)-II rmtB [11] | Antibacterial activity AG031 P. aer. APH(3′)-II (AG031 P. aer. APH(3′)-II) | Activity Enterob. AG302 AAC(3)-II AAC(6′)-I rmtC [12] | Activity E. coli pH427 rmtF [14] | Activity E. coli pH426 rmtC [15] | Antibacterial activity AG032 P. aer. APH(3′)-II (AG032 P. aer. APH(3′)-II) | Antibacterial activity AG042 MRSA AAC(6′)-I ANT(4′)-I APH(2′) [17] | also measured |
| --- | --- | --- | --- | --- | --- | --- | --- | --- | --- | --- | --- | --- | --- | --- | --- | --- |
| NCC[C@H](O)C(=O)N[C@@H]1C[C@H](N)[C@@H](O[C@H]2O[C@H](CN)[C@@H](O)[C@H](O)[C@H]2O)[C@H](O)[C@H]1O[C@H]1O[C@H](CO)[C@@H](O)[C@H](N)[C@H]1O [AMK, amikacin, reference compound] | >256 | 64 | >128 | 4 | 2-4 | 1 | >256 | >128 | >256 | 4 | >256 | >128 | >128 | 4 | 16-32 | MIC ([5]; Escherichia coli, read-out: MIC AG212 E. coli): 2 µg/mL; MIC ([7]; Enterobacter cloacae, read-out: MIC AG290 E. cloacae): 1 µg/mL; MIC ([10]; Pseudomonas aeruginosa, ATCC27853, reference strain ATCC27853, read-out: MIC AG220 P. aeruginosa): 2 µg/mL; MIC (ATCC19977 M. abcessus; read-out: MIC ATCC19977 M. abcessus): 2 µg/mL (≈ 3.42 µM); MIC ([13]; Acinetobacter baumannii, read-out: MIC AG225 A. baumannii): 2 µg/mL; MIC ([16]; Klebsiella pneumoniae, read-out: MIC AG215 K. pneumonia): 1 µg/mL |
| gentamicin [reference compound] | >256 | 16 | >128 | 0.25-0.5 | 0.25-0.5 | 0.25 | >256 | >128 | >256 | 0.5 | >256 | >128 | >128 | 0.5 | 64 | MIC AG212 E. coli [5]: 0.5 µg/mL; MIC AG290 E. cloacae [7]: 0.25 µg/mL; MIC AG220 P. aeruginosa ([10]; reference strain ATCC27853): 0.5 to 1 µg/mL; MIC ATCC19977 M. abcessus (ATCC19977 M. abcessus; reference strain): 2 to 4 µg/mL; MIC AG225 A. baumannii [13]: 0.5 to 1 µg/mL; Antibacterial activity AG055 E. coli WT (AG055 E. coli WT): 0.5; MIC AG215 K. pneumonia [16]: 0.25 µg/mL; Antibacterial activity AG003 E. coli AAC(3)-II (AG003 E. coli AAC(3)-II): 32-64; Antibacterial activity AG001 E. coli WT (AG001 E. coli WT): 1 |
